Results taken from patent US20050075398A1, “Neuroprotectin D1 protects against cellular apoptosis, stroke damage, alzheimer's disease and retinal diseases” (priority 2003, published 2005).

Experiments:
[1] = test system: polymorphonuclear leukocyte infiltration; test: Zymosan-induced peritonitis, leukocyte infiltration; format: in vivo, mouse; settings: 100 ng i.v. bolus 1.5 min before Zymosan A; lavage at 2 h
Method: The inhibition of leukocyte infiltration in zymosan-induced peritonitis by 4,17S-diHDHA and 10,17S-docosatriene (NPD1) was tested. […] Peritonitis was induced in 6- to 8-week-old male FVB mice (Charles River Laboratories) by peritoneal injection of 1 mg Zymosan A. The compounds 4,17S- and 10,17S-diHDHA were injected by intravenous bolus injection, 1.5 minutes before Zymosan A treatment. Two hours after induction of peritonitis, rapid peritoneal lavages were collected, and cell type enumeration was performed.

[2] = test system: myeloperoxidase immunoreactivity (PMN leukocytes); test: Immunohistochemistry of myeloperoxidase after MCA-O; format: in vivo, mouse; settings: infusion 0.4 μg over 48 h; 1 h MCA-O, 48 h reperfusion
Method: Immunohistochemistry of myeloperoxidase to assess leukocyte infiltration. After MCA-O, mice were infused by Alzet mini-pumps with vehicle or 10,17S-docosatriene (NPD1). After 48 h, mice were anesthetized and killed by intracardial perfusion of ice-cold saline followed by 10% neutral buffered formalin. Brain tissues were allowed to equilibrate overnight in 4% buffered formalin, followed by 30% sucrose in 0.1 M PBS. Frozen sections were made at 10 μm thickness and mounted on glass slides. Sections were permeablized with 0.6% Triton X-100 for 10 min, washed in PBS, and blocked in 2% goat serum in PBS for 30 min. Incubation with myeloperoxidase/FITC-conjugated antibody (DAKO A/S, Denmark) was performed at 1:200 dilution for 2 h. Sections were washed in Tween-20 in PBS then mounted in Vectashield (Vector, Calif.). Images were recorded by deconvolution microscope (Intelligent Imaging Innovations, Denver, Colo.).
To determine whether 10,17S-docosatriene (NPD1) affected brain ischemia-reperfusion-induced PMN infiltration, either DHA or 10,17S-docosatriene (NPD1) was constantly infused into the third ventricle of a mouse brain during 48 h of reperfusion. […] The data shown represent averages± SD of the indicated number (n) of individual mice. Immunocytochemical changes in polymorphonuclear leukocytes were shown by a green fluorescence that indicated myeloperoxidase immunoreactivity. […]

AP1-DNA binding activity = test: EMSA of AP1 in IL-1β-exposed human neural progenitor cells; format: cell-based; settings: HN progenitor cells
Method: Human neural (HN) progenitor cells in primary culture. HN cells were grown to ˜70% confluence (˜50,000 cells per 3.5-cm diameter well) in 6-well COSTAR plates at 37° C., 5% CO2/20% O2/75% N2 in humidified air at 1 atm (normoxic conditions) in NPMM medium (Clonetics CC-4241) supplemented with hFGF, NSF-1, hEGF, GA-1000, as described by the manufacturer (Clonetics, Walkersville, Md.). HN cells tested negative for HIV-1, hepatitis B and C, mycoplasma, bacteria, yeast, and fungi, and positive for the glial and neuronal markers GFAP, MAP2, and β-tubulin III (Clonetics). […]
Electrophoretic mobility-shift assay (EMSA) of human AP1, HIF-1α, NF-κBp50/p65, and STAT-1α. Nuclear protein extracts (NPXTs) were prepared from one to three 3.5 cm-diameter wells of HN cells and quantitated. NPXTs (5 μg) derived from HN cells were incubated with[γ-^32P]-ATP (˜3000 Ci/mmol)-end-labeled AP1, HIF-1α, NF-κκBp50/p65, or STAT-1α consensus and mutant oligonucleotides in 5-μl volumes, reacted for 30 min on ice, analyzed on 5% or 10% acrylamide/90 mM Tris-borate pH 8.4, 1 mM EDTA (TBE) gels, dried onto 2-mm Whatman filter paper at 80° C. for 2 h, and phosphorimaged using a Typhoon Variable Mode Imager (Amersham Pharmacia Biotech, Piscataway, N.J. ).

COX-2 mRNA = COX-2 mRNA in IL-1β-exposed human neural progenitor cells; format: cell-based; settings: p<0.05
Method: Human neural (HN) progenitor cells in primary culture. HN cells were grown to ˜70% confluence (˜50,000 cells per 3.5-cm diameter well) in 6-well COSTAR plates at 37° C., 5% CO2/20% O2/75% N2 in humidified air at 1 atm (normoxic conditions) in NPMM medium (Clonetics CC-4241) supplemented with hFGF, NSF-1, hEGF, GA-1000, as described by the manufacturer (Clonetics, Walkersville, Md.). HN cells tested negative for HIV-1, hepatitis B and C, mycoplasma, bacteria, yeast, and fungi, and positive for the glial and neuronal markers GFAP, MAP2, and β-tubulin III (Clonetics). After two weeks of development, HN cells were exposed to human recombinant interleukin 1-beta (IL-1β) (10 ng/ml) for 3 h in the presence or absence of 0.03, 0.3, 3.0, 30, and 300 nM 10,17S-docosatriene (NPD1), DHA, or PBS pH 7.4 (control). RNA and protein were quickly isolated using Trizol Reagent (Invitrogen, Carlsbad, Calif.) and stored at −81° C. within minutes of isolation.
COX-2 RNA abundance in hippocampus and HN cells. Abundance of human-specific COX-1 and COX-2 RNA message was assayed using RT-PCR as described in Bazan, N. G., and Lukiw, W. J. (2002) J. Biol. Chem. 277, 30359-30367.

IL-1β gene expression = test: HGU133 GeneChip DNA array in HN cells: IL-1β; format: cell-based, human; settings: Aβ42 25 μM, DHA 50 nM or NPD1 50 nM, 18 h, nsc = no significant change
Bax gene expression = test: HGU133 GeneChip DNA array in HN cells: Bax; format: cell-based, human; settings: Aβ42 25 μM, DHA 50 nM or NPD1 50 nM, 18 h, nsc = no significant change
Excerpt: Total RNA quality and abundance were profiled using RNA Nano LabChips (Caliper Technologies, Mountainview, Calif.; Agilent Technologies, Palo Alto, Calif.).
Biotinylated antisense cRNAs were synthesized from cDNA using the Superscript Choice System (Invitrogen) and Enzo Biorray High Yield RNA Transcript Labeling kits according to the manufacturer's protocols (Affymetrix) and as described in Colangelo, V., Schurr, J., Ball, M. J., Pelaez, R. P., Bazan, N. G., Lukiw, W. J. (2002) J. Neurosci. […] Probes were hybridized against HU133Av2 GeneChip DNA arrays that interrogate approximately 33,000 full-length mouse genes and expressed sequence tag (EST) clusters.
DNA arrays were scanned at 570 nm, and significant features were extracted using Data Mining Tool 3.0 (Affymetrix). Data analyses and graphic presentations were performed using Microarray Suite 5.0 (Affymetrix), GeneSpring 6.0 (Silicon Genetics, Redwood City, Calif.) and Adobe Photoshop 6.0 (Adobe Systems, San Jose, Calif.). Volcano plots were plotted representing total gene expression patterns as a function of fold-change as compared to expression patterns of age-matched controls as plotted against p, as calculated by an analysis of variance (ANOVA). […] Statistical significance was analyzed using a two-way factorial analysis of variance (p, ANOVA; Statistical Analysis System; SAS Institute, Cary, N.C. ).

ARPE-19 cells = test: ELISA detection of mono- and oligonucleosomes; format: cell-based, human; settings: 50 nM
Method: Assessment of apoptosis by mono- and oligonucleosome analysis: Cells were homogenized in a lysis buffer and 20-μl aliquots were applied on streptavidin-coated 96-well plates. Cells were incubated for 2 h with 80 μl incubation buffer containing the monoclonal antibodies directed against DNA and histones for detection of mono- and oligonucleosomes (Roche Diagnostics Corporation Cat. # 1774425). After the unreacted antibodies were washed away, the immune complexes of DNA-histone-antibodies remain bound to the streptavidin-coated plates, where detection was attained by horseradish-peroxidase reaction.
DNA fragmentation was also detected by ELISA detection of mono- and oligonucleosomes in ARPE cells (Roche Diagnostics Corporation Cat. # 1774425). Cells were homogenized in a lysis buffer, and 20-μl aliquots were applied on streptavidin-coated 96-well plates. Cells were incubated for 2 h with 80 μl incubation buffer containing the monoclonal antibodies directed against DNA and histones for detection of mono- and oligonucleosomes. After the unreacted antibodies were washed away, the immune complexes of DNA-histone-antibodies remained bound to the streptavidin-coated plates, where detection is obtained through horseradish-peroxidase reaction. Quantitative analysis was performed in a Spectramax-250 (Molecular Devices) spectrophotometer.

caspase-3 = test: Caspase-3 cleavage in ARPE-19 cells stably transfected with lentivirus DEVD construct; settings: 50 nM
Excerpt: The values shown are the average of triplicate samples in three independent experiments.

Structure (SMILES): CC/C=C\C[C@H](O)\C=C/C=C/C=C/[C@H](O)C/C=C\C/C=C\CCC(=O)O [NPD1, 10,17S-docosatriene]
- inhibition of leukocyte infiltration [1]: potent inhibition
- green fluorescence (myeloperoxidase immunoreactivity), ipsilateral brain [2]: surprisingly large reduction
- effect on IL-1β-induced AP1-DNA binding activity (AP1-DNA binding activity): did not affect
- effect on IL-1β-induced expression of COX-2 mRNA (COX-2 mRNA): inhibited
- IL-1β gene expression, fold change over untreated controls (IL-1β gene expression): nsc
- Bax gene expression, fold change over untreated controls (Bax gene expression): nsc
- effect on TNFα/H2O2-induced accumulation of mono- and oligonucleosomes (ARPE-19 cells): inhibited
- inhibition of caspase-3 activation (caspase-3; 400 μM H2O2 with TNFα): 60%
- inhibition of caspase-3 activation (caspase-3; 800 μM H2O2 with TNFα): 50%
